Assay results: patent publication US7892767B2, “Phosphospecific chemokine receptor antibodies” (Washington University in St. Louis, priority 2005, dated 2011)

Assays:
[1] = reference (94), cited from earlier work
Daoy xenografts = conditions: systemic delivery, reference (3); cited from earlier work
U87 GBM xenografts = conditions: systemic delivery, reference (3); cited from earlier work
Nf1−/− astrocytes [2] = assay: Cell number by trypan blue exclusion, Nf1−/− astrocytes; assay type: cell-based, mouse; conditions: data not shown
Experimental: (§1) Culture and treatment of primary astrocytes. Primary cultures of astrocytes were prepared from post-natal day two Nf1^flox/flox mice as previously described (134) and in accordance with established Animal Studies Protocols at Washington University School of Medicine. Cultures were infected with adenovirus containing either Cre recombinase (Nf1−/−) or LacZ (Nf1+/+). Primary cultures of astrocytes were grown under standard adherent conditions in serum free media (DMEM/F12 or Neurobasal (Gibco-BRL)) in the presence or absence of 0.1 μg/ml CXCL12 (Peprotech) and 10 μM Forskolin for 24 hours, as indicated. Cell number was determined after 24 hours by trypan blue exclusion and the growth effects of CXCL12 were derived as follows: ((cell number in the presence of CXCL12—cell number cell in the absence of CXCL12)/cell number in the absence of CXCL12)×100.)
(§2) To determine the biological significance of CXCR4 activation to NF1 glioma biology, we next sought to evaluate the regulation of CXCL12 growth effects by neurofibromin in astrocytes. While the true cell of origin of astrocytomas remains unknown, we utilized primary cultures of cortical astrocytes as a model of a normal counterpart to astrocytoma cells. Astrocytes were derived from Nf1^flox/flox mice and rendered Nf1+/+ or Nf1−/− by infection with adenovirus encoding LacZ or Cre recombinase, respectively.

Nf1+/+ astrocytes [3] = assay: Cell number by trypan blue exclusion, Nf1+/+ astrocytes; assay type: cell-based, mouse; conditions: data not shown
Experimental: as §1, §2

CXCR4 = CXCR4 (Homo sapiens, UniProt P61073); assay: Stimulated CXCR4 phosphorylation in LN428 GBM cells (western blot); assay type: cell-based; set-up: lysates from the glioblastoma cell line LN428, which is known to express high levels of CXCR4; endogenous in cells; host or cells: LN428 GBM cell line
CXCR4, sequence (P61073 whole entry): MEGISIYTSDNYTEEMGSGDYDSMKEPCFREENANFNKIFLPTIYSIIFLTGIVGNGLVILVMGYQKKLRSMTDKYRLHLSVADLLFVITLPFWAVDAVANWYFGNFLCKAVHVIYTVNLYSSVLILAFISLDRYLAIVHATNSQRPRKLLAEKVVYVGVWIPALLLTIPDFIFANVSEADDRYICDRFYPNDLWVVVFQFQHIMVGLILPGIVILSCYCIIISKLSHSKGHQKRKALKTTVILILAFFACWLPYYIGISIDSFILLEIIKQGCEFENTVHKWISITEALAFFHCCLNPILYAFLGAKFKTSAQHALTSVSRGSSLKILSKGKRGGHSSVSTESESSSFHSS
Experimental: Cell Culture, transfections and stimulation of CXCR4 phosphorylation. The U87 glioblastoma multiforme (GBM, grade IV) cell line was obtained from the American Type Culture Collection. The LN428 GBM cell line was a kind gift of Dr Erwin van Meir (Winship Cancer Center, Emory University, Atlanta, Ga.). U87 cells were grown in minimum essential a media supplemented with 10% fetal bovine serum ((FBS), Biomedia, Foster City, Calif.). LN428 cells were grown in DMEM (Fisher, Pittsburgh, Pa.) supplemented with 10% horse serum (Sigma). All cells were grown in the presence of penicillin-streptomycin. The coding sequence for human CXCR4 was obtained by high fidelity RT-PCR (Superscript III Platinum, Invitrogen), and cloned into the expression vector pMSCVneo (Clontech, Palo Alto, Calif.). Transfections were performed with 0.3 μg of plasmid DNA in 20 μl Lipofectamine (Invitrogen)/35 mm^2 tissue culture dish for 9 hours according to the manufacturer's instructions. Cells recovered in Optimem supplemented with 10% FBS. Transfected and non-transfected cells were placed in serum free media for 24 hours prior to treatment with agents to stimulate CXCR4 phosphorylation. Treatment was usually for 0 or 10 minutes with 1 μg/ml CXCL12 (Peprotech, Rocky Hill N.J.), 4 μM 4-Phorbol 12-myristate 13-acetate (PMA) or 10 nM EGF. In some experiments, CXCL12 was washed away and cells were incubated for an additional 20 minutes in serum free media alone.
Western Blot Analysis. Whole-cell extracts were obtained by lysing cells with lysis buffer (20 mM Tris pH 7.4, 137 mM NaCl, 10% Glycerol and 1% Triton X-100) supplemented with phosphatase inhibitor cocktail set II (Calbiochem, La Jolla, Calif.) and protease inhibitors PMSF (1 mM), leupeptin (0.005 mg/ml) and aprotonin (0.005 mg/ml). The proteins (50-75 μg) were resolved with 10% Bis-Tris gels (Invitrogen) and transferred onto the nitrocellulose membrane Hybond ECL (Amersham, Piscataway, N.J.) according to standard protocols. Polyclonal anti-CXCR4 antibody was used at a 1:500 dilution and P338-CXCR4 and P339-CXCR4 directed antibodies were used at 1:100 dilutions overnight at 4° C. This was followed by incubation with horseradish peroxidase-conjugated secondary antibody (1:15,000; Bio-Rad). Peroxide activity was detected using the enhanced chemiluminescence Supersignal West Dura system (Pierce, Rockford, Ill.). Mouse anti-actin antibody at a concentration of 1:1500 was used as a loading control. Peptide competitions and lambda phosphatase treatment were performed as described above.
The utility of these antibodies for evaluating the relationship between ligand binding and CXCR4 function is dependent upon their ability to distinguish a ligand activated form of the receptor. Serum starvation increased CXCL12 responsiveness (data not shown), and for all of these experiments LN428 GBM cells were serum starved for 24 hours prior to CXCL12 treatment. Serum starved LN428 cells were treated with 1 μg/ml CXCL12 for 0 or 10 minutes and the abundance of phospho-CXCR4 was determined by western blot and immuno-localization in fixed cells. […] A similar CXCL12-induced increase in P339-CXCR4 (FIG. 3B), but not P338-CXCR4 (data not shown) immunoreactivity was seen by immunofluorescent analysis of paraformaldehyde fixed cells. After 10 minutes of exposure to CXCL12, P339-CXCR4 can be seen localized to the surface of LN428 cells (FIG. 3B). CXCL12 was then washed away and cells were incubated in its absence for an additional 20 minutes. Surface labeling declined as a function of time and P339-CXCR4 was seen accumulating intracellularly.
Whether this is the only kinase that can phosphorylate these residues is unclear. The observation that protein kinase C (PKC) stimulated CXCR4 internalization also depends upon phosphorylation of this region of the molecule raises the question of whether these sites might also be PKC phosphorylation sites (17, 19, 27, 28). […]

Nf1−/− astrocytes [4] = assay: Intracellular cAMP by ELISA, Nf1−/− astrocytes; assay type: cell-based, mouse
Experimental: (§3) cAMP measurements. cAMP was measured by ELISA (Cayman Chemical Company, Ann Arbor, Mich. or Assay Designs, Ann Arbor, Mich.). Briefly, astrocyte cultures were lysed in 0.1 N HCl. After the removal of cellular debris, soluble cellular extract was dried down and resuspended in EIA buffer. Experimental samples and cAMP standard curve were acetylated to increase the sensitivity of the assay and incubated with cAMP ACHe tracer and cAMP EIA anti-serum overnight at 4° C. according to the manufacturer's instructions. After extensive washing, bound antibody was measured by spectrophotometric analysis. Concentrations of cAMP were derived from comparison with standard curve according to manufacturer's instructions.
(§4) We evaluated the time dependent changes in intracellular cAMP in Nf1+/+ and Nf1−/− astrocytes after exposure to 0.1 μg/ml CXCL12. […] However, in Nf1+/+ astrocytes, intracellular levels of cAMP rapidly recovered to baseline and oscillated between baseline and 40% of baseline over the 45-minute experimental period (FIG. 10B).
(§5) We hypothesized that if cooperative signaling between Nf1 loss and CXCR4 activation promotes tumor formation through the suppression of cAMP, then agents that alter intracellular cAMP should modulate CXCL12 responses. We treated astrocytes with the adenylyl cyclase (AC) activator forskolin in the presence and absence of CXCL12. […] In these experiments, forskolin elevated intracellular cAMP levels in both Nf1+/+ and Nf1−/− astrocytes with peak values of 17.8+/−0.4 and 19.4+/−4.5 pmol/mg of protein, respectively, after 24 hours of treatment. The effect of forskolin was not abrogated by co-treatment with CXCL12. Under these conditions, cAMP levels were 17.9+/−2.5 and 10.4+/−5.8 pmol/mg of total protein in Nf1+/+ and Nf1−/− astrocytes, respectively. […] The effect of forskolin on CXCL12-mediated Nf1−/− apoptosis was evidenced by changes in the percentage of Nf1−/− astrocytes in the sub-G0 fraction of the cell cycle (FIG. 11B). Thus while astrocyte growth is dependent upon MEK and PI3 kinase activity, CXCL12-induced Nf1−/− astrocyte growth requires the suppression of intracellular cAMP levels.

Nf1+/+ astrocytes [5] = assay: Intracellular cAMP by ELISA, Nf1+/+ astrocytes; assay type: cell-based, mouse
Experimental: as §3, §4, §5

[6] = 1 μg/ml CXCL12, 4 μM PMA or 10 nM EGF
[7] = forskolin 10 μM co-treatment with CXCL12 0.1 μg/ml

c1cc(CN2CCCNCCNCCCNCC2)ccc1CN1CCCNCCNCCCNCC1 [AMD 3100]
toxicities ([1]; sustained dosing over a 10 day period): mild toxicities | white blood cell counts ([1]; throughout an 18 day follow-up period after cessation): elevations of white blood cell counts | intracranial growth of medulloblastoma xenografts (Daoy xenografts): blocked the intracranial growth | intracranial growth of glioblastoma xenografts (U87 GBM xenografts): blocked the intracranial growth

COc1cccc(-c2cc(=O)c3ccccc3o2)c1N [PD98059]
astrocyte growth (Nf1−/− astrocytes [2]): prevented growth | astrocyte growth (Nf1+/+ astrocytes [3]): prevented growth

CCCCCCCCCCCCCC(=O)O[C@@H]1[C@@H](C)[C@@]2(O)[C@@H](C=C(CO)C[C@]3(O)C(=O)C(C)=C[C@@H]23)[C@@H]2C(C)(C)[C@]12OC(C)=O [PMA, 4-Phorbol 12-myristate 13-acetate]
P338 phosphorylation stimulated (CXCR4; [6]): not | P339 phosphorylation (CXCR4; [6]): stimulated | P339-CXCR4 immunoreactivity compared with response to CXCL12 (CXCR4; 4 μM PMA or 10 nM EGF): greater

C=C[C@@]1(C)CC(=O)[C@]2(O)[C@@]3(C)[C@@H](O)CCC(C)(C)[C@@H]3[C@H](O)[C@H](OC(C)=O)[C@@]2(C)O1 [forskolin]
cAMP levels (Nf1−/− astrocytes [4]; [7]): 10.4+/−5.8 pmol/mg of total protein | peak intracellular cAMP (Nf1−/− astrocytes [4]; forskolin 10 μM, 24 hours): 19.4+/−4.5 pmol/mg of protein | cAMP levels (Nf1+/+ astrocytes [5]; [7]): 17.9+/−2.5 pmol/mg of total protein | peak intracellular cAMP (Nf1+/+ astrocytes [5]; forskolin 10 μM, 24 hours): 17.8+/−0.4 pmol/mg of protein
